In patent publication US11555032B2, “Isoxazole derivatives as FXR agonists and methods of use thereof” (Enanta Pharmaceuticals, Inc., priority 2019, dated 2023) one finds EC50 data, which are given here for 37 compounds.

SMILES strings stand for the structures. pEC50: −log10 of the molar value.

The test addresses T1, human FXR (NR1H4) (Homo sapiens, UniProt Q96RI1).
T1 construct: host or cells: CHO (Chinese hamster ovary) reporter cells
T1 sequence (Q96RI1 1-486): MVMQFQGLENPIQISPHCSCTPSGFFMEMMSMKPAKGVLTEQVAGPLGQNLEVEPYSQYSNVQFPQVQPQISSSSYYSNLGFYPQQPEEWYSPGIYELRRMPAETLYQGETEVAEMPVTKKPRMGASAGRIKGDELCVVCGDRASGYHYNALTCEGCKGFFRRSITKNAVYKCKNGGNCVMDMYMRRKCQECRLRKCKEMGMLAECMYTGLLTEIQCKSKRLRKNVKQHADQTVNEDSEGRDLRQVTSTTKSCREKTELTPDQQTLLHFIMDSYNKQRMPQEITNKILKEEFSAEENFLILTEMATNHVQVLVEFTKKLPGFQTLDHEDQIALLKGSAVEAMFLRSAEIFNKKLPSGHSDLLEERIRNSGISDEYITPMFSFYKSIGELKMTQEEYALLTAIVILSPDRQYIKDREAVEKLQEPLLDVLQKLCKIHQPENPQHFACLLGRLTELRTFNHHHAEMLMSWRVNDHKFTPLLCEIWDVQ
Briefly: Human FXR (NRIH4) Assay, luciferase reporter. The format is cell-based. The conditions noted are these: CHO reporter cells expressing human NR1H4, luciferase, 22 hours incubation. From the text:
Determination of a ligand mediated Gal4 promoter driven transactivation to quantify ligand binding mediated activation of FXR. FXR Reporter Assay kit purchased from Indigo Bioscience (Catalogue number: IB00601) to determine the potency and efficacy of compound developed by Enanta that can induce FXR activation. The principle application of this reporter assay system is to quantify functional activity of human FXR. The assay utilizes non-human mammalian cells, CHO (Chinese hamster ovary) cells engineered to express human NR1H4 protein (referred to as FXR). Reporter cells also incorporate the cDNA encoding beetle luciferase which catalyzes the substrates and yields photon emission. Luminescence intensity of the reaction is quantified using a plate-reading luminometer, Envision. Reporter Cells include the luciferase reporter gene functionally linked to an FXR responsive promoter. Thus, quantifying changes in luciferase expression in the treated reporter cells provides a sensitive surrogate measure of the changes in FXR activity. EC50 and efficacy (normalize to CDCA set as 100%) is determined by XLFit. The assay is according to the manufacturer's instructions. In brief, the assay was performed in white, 96 well plates using final volume of 100 ul containing cells with different doses of compounds. Retrieve Reporter Cells from −80° C. storage. Perform a rapid thaw of the frozen cells by transferring a 10 ml volume of 37° C. cell recovery medium into the tube of frozen cells. Recap the tube of Reporter Cells and immediately place it in a 37° C. water bath for 5-10 minutes. Retrieve the tube of Reporter Cell Suspension from the water bath. Sanitize the outside surface of the tube with a 70% alcohol swab, and then transfer it into the cell culture hood. Dispense 90 μl of cell suspension into each well of the 96-well Assay Plate. Transfer the plate into 37° C. incubator, allowing the cells adherent to the bottom of the well. Dilute compounds in Dilution Plate (DP), and administrate to cells at Assay Plate (AP). DMSO content of the samples was kept at 0.2%. Cells were incubated for additional 22 hours before luciferase activities were measured. Thirty minutes before intending to quantify FXR activity, remove Detection Substrate and Detection Buffer from the refrigerator and place them in a low-light area so that they may equilibrate to room temperature. Remove the plate's lid and discard all media contents by ejecting it into an appropriate waste container. Gently tap the inverted plate onto a clean absorbent paper towel to remove residual droplets. Cells will remain tightly adhered to well bottoms. Add 100 μl of luciferase detection reagent to each well of the assay plate. Allow the assay plate to rest at room temperature for at least 5 minutes following the addition of LDR. Set the instrument (Envision) to perform a single 5 second “plate shake” prior to reading the first assay well. Read time may be 0.5 second (500 mSec) per well. EC50 and Efficacy (normalize to CDCA set as 100%) is determined by XLFit.
The efficacy was normalized to CDCA set as 100%.
Turning to `O=C(O)c1ccc2cc(S(=O)(=O)NC3C4CCC3CC(OCc3c(-c5ccccc5OC(F)(F)F)noc3C3CC3)C4)ccc2c1` (stereo not shown) [Example 9-7], the pEC50 (usually −log10 of the EC50, conventionally taken in molar units) is 6.30 to 7.60.
Next, `O=C(O)c1cccc(S(=O)(=O)NC2C3CCC2CC(OCc2c(-c4ccccc4OC(F)(F)F)noc2C2CC2)C3)c1` (stereo not shown) [Example 9-8]: less than 6.30.
The compound `O=C(O)c1ccccc1S(=O)(=O)NC1C2CCC1CC(OCc1c(-c3ccccc3OC(F)(F)F)noc1C1CC1)C2` (stereo not shown) [Example 9-9] gave a negative-log EC50 (pEC50) of less than 6.30.
The same measure for `O=S(=O)(NC1C2CCC1CC(OCc1c(-c3ccccc3OC(F)(F)F)noc1C1CC1)C2)c1ccccc1` (stereo not shown) [Example 9-10]: 6.30 to 7.60; for `O=S(=O)(NC1C2CCC1CC(OCc1c(-c3ccccc3OC(F)(F)F)noc1C1CC1)C2)c1cccc2ccccc12` (stereo not shown) [Example 9-11]: greater than 7.60.
The same measure for `O=S(=O)(NC1C2CCC1CC(OCc1c(-c3ccccc3OC(F)(F)F)noc1C1CC1)C2)c1ccc2ccccc2c1` (stereo not shown) [Example 9-12]: greater than 7.60; for `O=S(=O)(NC1C2CCC1CC(OCc1c(-c3ccccc3OC(F)(F)F)noc1C1CC1)C2)c1cccc2cccnc12` (stereo not shown) [Example 9-13]: 6.30 to 7.60; for `O=S(=O)(NC1C2CCC1CC(OCc1c(-c3ccccc3OC(F)(F)F)noc1C1CC1)C2)c1cccc2cnccc12` (stereo not shown) [Example 9-14]: greater than 7.60.
Next, `O=S(=O)(NC1C2CCC1CC(OCc1c(-c3ccccc3OC(F)(F)F)noc1C1CC1)C2)c1cccc2ccncc12` (stereo not shown) [Example 9-15]: greater than 7.60; `O=S(=O)(NC1C2CCC1CC(OCc1c(-c3ccccc3OC(F)(F)F)noc1C1CC1)C2)c1cccc2ncccc12` (stereo not shown) [Example 9-16]: greater than 7.60; `CC(C)Oc1ccc(S(=O)(=O)NC2C3CCC2CC(OCc2c(-c4ccccc4OC(F)(F)F)noc2C2CC2)C3)c2ccccc12` (stereo not shown) [Example 9-17]: 6.30 to 7.60.
Turning to `CC(C)Oc1cc(CO)cc2sc(NC3C4CCC3CC(OCc3c(-c5ccccc5OC(F)(F)F)noc3C3CC3)C4)nc12` (stereo not shown) [Example 10-2], the negative-log EC50 (pEC50) was greater than 7.60.
Next, `CC(C)Oc1cc(C(C)(C)O)cc2sc(NC3C4CCC3CC(OCc3c(-c5ccccc5OC(F)(F)F)noc3C3CC3)C4)nc12` (stereo not shown) [Example 10]: greater than 7.60; `COC(=O)c1ccc2cc(SC3C4CCC3CC(OCc3c(-c5ccccc5OC(F)(F)F)noc3C3CC3)C4)ccc2c1` [Example 11, methyl 6-(((1R,3r,5S,8s)-3-((5-cyclopropyl-3-(2-(trifluoromethoxy)phenyl)isoxazol-4-yl)methoxy)bicyclo[3.2.1]octan-8-yl)thio)-2-naphthoate]: 6.30 to 7.60; `O=C(O)c1ccc2cc(SC3C4CCC3CC(OCc3c(-c5ccccc5OC(F)(F)F)noc3C3CC3)C4)ccc2c1` [Example 11-2, 6-(((1R,3r,5S,8s)-3-((5-cyclopropyl-3-(2-(trifluoromethoxy)phenyl)isoxazol-4-yl)methoxy)bicyclo[3.2.1]octan-8-yl)thio)-2-naphthoic acid]: 6.30 to 7.60.
The same measure for `COC(=O)c1ccc2cc(S(=O)(=O)C3C4CCC3CC(OCc3c(-c5ccccc5OC(F)(F)F)noc3C3CC3)C4)ccc2c1` [Example 11-3, methyl 6-(((1R,3r,5S,8s)-3-((5-cyclopropyl-3-(2-(trifluoromethoxy)phenyl)isoxazol-4-yl)methoxy)bicyclo[3.2.1]octan-8-yl)sulfonyl)-2-naphthoate]: 6.30 to 7.60; for `O=C(O)c1ccc2cc(S(=O)(=O)C3C4CCC3CC(OCc3c(-c5ccccc5OC(F)(F)F)noc3C3CC3)C4)ccc2c1` (stereo not shown) [Example 11-4]: 6.30 to 7.60; for `CCOC(=O)c1cccc(SC2C3CCC2CC(OCc2c(-c4ccccc4OC(F)(F)F)noc2C2CC2)C3)c1` (stereo not shown) [Example 11-5]: less than 6.30.
In the case of `O=C(O)c1cccc(SC2C3CCC2CC(OCc2c(-c4ccccc4OC(F)(F)F)noc2C2CC2)C3)c1` (stereo not shown) [Example 11-6], the pEC50 is 6.30 to 7.60.
Next, `CCOC(=O)c1cccc(S(=O)(=O)C2C3CCC2CC(OCc2c(-c4ccccc4OC(F)(F)F)noc2C2CC2)C3)c1` (stereo not shown) [Example 11-7]: 6.30 to 7.60; `O=C(O)c1cccc(S(=O)(=O)C2C3CCC2CC(OCc2c(-c4ccccc4OC(F)(F)F)noc2C2CC2)C3)c1` (stereo not shown) [Example 11-8]: less than 6.30; `COC(=O)c1ccc2nc(SC3C4CCC3CC(OCc3c(-c5ccccc5OC(F)(F)F)noc3C3CC3)C4)sc2c1` (stereo not shown) [Example 11-9]: 6.30 to 7.60.
The same measure for `O=C(O)c1ccc2nc(SC3C4CCC3CC(OCc3c(-c5ccccc5OC(F)(F)F)noc3C3CC3)C4)sc2c1` (stereo not shown) [Example 11-10]: greater than 7.60; for `O=C(O)c1ccc2nc(S(=O)(=O)C3C4CCC3CC(OCc3c(-c5ccccc5OC(F)(F)F)noc3C3CC3)C4)sc2c1` (stereo not shown) [Example 11-11]: 6.30 to 7.60; for `COC(=O)c1ccc(SC2C3CCC2CC(OCc2c(-c4ccccc4OC(F)(F)F)noc2C2CC2)C3)cc1` (stereo not shown) [Example 11-12]: 6.30 to 7.60.
The same measure for `O=C(O)c1ccc(SC2C3CCC2CC(OCc2c(-c4ccccc4OC(F)(F)F)noc2C2CC2)C3)cc1` (stereo not shown) [Example 11-13]: 6.30 to 7.60.
Turning to `COC(=O)c1ccc(S(=O)(=O)C2C3CCC2CC(OCc2c(-c4ccccc4OC(F)(F)F)noc2C2CC2)C3)cc1` (stereo not shown) [Example 11-14], the pEC50 is 6.30 to 7.60.
Next, `O=C(O)c1ccc(S(=O)(=O)C2C3CCC2CC(OCc2c(-c4ccccc4OC(F)(F)F)noc2C2CC2)C3)cc1` (stereo not shown) [Example 11-15]: 6.30 to 7.60; `CCOC(=O)c1cc(F)c2nc(SC3C4CCC3CC(OCc3c(-c5ccccc5OC(F)(F)F)noc3C3CC3)C4)sc2c1` (stereo not shown) [Example 11-16]: 6.30 to 7.60.
Next, `O=C(O)c1cc(F)c2nc(SC3C4CCC3CC(OCc3c(-c5ccccc5OC(F)(F)F)noc3C3CC3)C4)sc2c1` (stereo not shown) [Example 11-17]: greater than 7.60; `CCOC(=O)c1cc(F)c2nc(S(=O)(=O)C3C4CCC3CC(OCc3c(-c5ccccc5OC(F)(F)F)noc3C3CC3)C4)sc2c1` (stereo not shown) [Example 11-18]: less than 6.30.
Next, `O=C(O)c1cccc2nc(SC3C4CCC3CC(OCc3c(-c5ccccc5OC(F)(F)F)noc3C3CC3)C4)cnc12` [Example 12, 2-(((1R,3r,5S,8s)-3-((5-cyclopropyl-3-(2-(trifluoromethoxy)phenyl)isoxazol-4-yl)methoxy)bicyclo[3.2.1]octan-8-yl)thio)quinoxaline-5-carboxylic acid]: greater than 7.60.
In turn, `N#Cc1cccc2ncc(NC3C4CCC3CC(OCc3c(-c5ccccc5OC(F)(F)F)noc3C3CC3)C4)nc12` (stereo not shown) [Example 13-2] gave a pEC50 of less than 6.30.
Next, `FC(F)(F)Oc1ccccc1-c1noc(C2CC2)c1CO[C@H]1C[C@H]2CC[C@@H](C1)[C@@H]2Nc1cnc2c(-c3nnn[nH]3)cccc2n1` [Example 13-3, N-((1R,3r,5S,8s)-3-((5-cyclopropyl-3-(2-(trifluoromethoxy)phenyl)isoxazol-4-yl)methoxy)bicyclo[3.2.1]octan-8-yl)-5-(1H-tetrazol-5-yl)quinoxalin-2-amine]: greater than 7.60.
Turning to `FC(F)(F)Oc1ccccc1-c1noc(C2CC2)c1COC1CC2CCC(C1)C2Nc1nc2c(C3CC3)cc(-c3nnn[nH]3)cc2s1` (stereo not shown) [Example 13-5], the negative logarithm of the EC50 (pEC50) is greater than 7.60.
Regarding `CC(C)Oc1cc(C#N)cc2sc(NC3C4CCC3CC(OCc3c(-c5ccccc5OC(F)(F)F)noc3C3CC3)C4)nc12` (stereo not shown) [Example 13-6], the pEC50 was greater than 7.60.
The same measure for `CC(C)Oc1cc(-c2nnn[nH]2)cc2sc(NC3C4CCC3CC(OCc3c(-c5ccccc5OC(F)(F)F)noc3C3CC3)C4)nc12` (stereo not shown) [Example 13-7]: greater than 7.60.
